Test results reported in patent publication US20110053897A1 (IRM LLC, priority 2009, published 2011).

biological target: T1, Syk kinase (Homo sapiens, UniProt P43405); assay: Syk kinase inhibition, Caliper LabChip off-chip mobility-shift kinase assay; assay type: biochemical; settings: Caliper LabChip assay; read-out: Syk Enzyme IC50
T1 construct: purchased
Outline: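 Purified Syk pre-incubated 15 min with compound in 100 mM HEPES pH 7.5, 1 mM DTT, 10 mM MgCl2 or MnCl2, 0.002% Brij-35, then 1.5 μM fluorescein peptide and ATP at apparent KM added; 1–1.5 h at room temperature, 4% DMSO, EDTA stop. Microfluidic mobility-shift product/substrate conversion gave % inhibition; IC50 from 12-point series (10–0.00003 μM) by 4-parameter fit.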

Structure (SMILES)	IC50 [nM]
CC1(Cn2ccc3cc(Nc4cnccn4)nc(NC4CCC4)c3c2=O)COC1 [compound 755]	9
NC(=O)Cn1ccc2cc(-c3cnc(N)nc3)nc(NC3CC(F)(F)C3)c2c1=O [compound 759]	175
Cc1ccnc(Nc2cc3ccn(CCO)c(=O)c3c(NCC(F)F)n2)c1 [compound 815]	117
CC(C)(C)Nc1nc(-c2cnc(N)nc2)cc2ccn(C(CO)CO)c(=O)c12 [compound 922]	6
COCCNC(=O)c1ccnc(Nc2cc3ccn(CCO)c(=O)c3c(NC(C)(C)C)n2)c1 [compound 682]	329
CC(C)(C)Nc1nc(Nc2cc(-c3nc(CO)cs3)ccn2)cc2ccn(CCO)c(=O)c12 [compound 843]	82
CCn1ccc2cc(Nc3cc(C)ccn3)nc(N[C@@H]3CC[C@@H](CO)C3)c2c1=O [compound 790]	88
CC(C)(C)Nc1nc(Nc2cc(CN3CC(O)C3)c(F)cn2)cc2ccn(CCO)c(=O)c12 [compound 611]	251
CCn1ccc2cc(Nc3cc(C)ccn3)nc(Nc3ccc(C(=O)NCCO)cc3)c2c1=O [compound 834]	126
O=c1c2c(N[C@H]3CC[C@@H](O)CC3)nc(Nc3cnccn3)cc2ccn1CCN1CCOCC1 [compound 994]	108
NC(=O)Cn1ccc2cc(-c3cnc(N)nc3)nc(NC3CCOCC3)c2c1=O [compound 750]	24
CC(C)n1ccc2cc(Nc3cnccn3)nc(N[C@H]3CC[C@@H](O)CC3)c2c1=O [compound 944]	32
Nc1ncc(-c2cc3ccn(CCO)c(=O)c3c(N3CCCC3)n2)cn1 [compound 909]	546
[2H]C([2H])([2H])n1ccc2cc(Nc3cnccn3)nc(N[C@H]3CC[C@@H](CO)C3)c2c1=O [compound 986]	9
CCn1ccc2cc(Nc3cnccn3)nc(NC3CCCC(O)C3)c2c1=O (stereo not shown) [compound 973]	26
CC(C)(C)Nc1nc(-c2cnc(N)nc2)cc2ccn(C[C@H](O)CO)c(=O)c12 [compound 934]	9
CC(C)(C)Nc1nc(Nc2cc(S(C)(=O)=O)ccn2)cc2ccn(CCO)c(=O)c12 [compound 699]	99
CC(C)(C)Nc1nc(Nc2cc(CNCCO)ccn2)cc2ccn(CCO)c(=O)c12 [compound 608]	< 5.65
CCn1ccc2cc(Nc3cc(C)ccn3)nc(NC3CCC(C)(O)CC3)c2c1=O (stereo not shown) [compound 950]	53
CN(C)CCNC(=O)c1ccnc(Nc2cc3ccn(CCO)c(=O)c3c(NC(C)(C)C)n2)c1 [compound 683]	595
CC(C)(C)Nc1nc(Nc2cc(CO)ncn2)cc2ccn(CCO)c(=O)c12 [Compound No. 607, 8-(tert-butylamino)-2-(2-hydroxyethyl)-6-(6-(hydroxymethyl)pyrimidin-4-ylamino)-2,7-naphthyridin-1(2H)-one]	29
CC(C)(C)Nc1nc(Nc2cc(C(O)C(F)(F)F)ccn2)cc2ccn(CCO)c(=O)c12 (stereo not shown) [Compound No. 602, 8-(tert-butylamino)-2-(2-hydroxyethyl)-6-(4-(2,2,2-trifluoro-1-hydroxyethyl)pyridin-2-ylamino)-2,7-naphthyridin-1(2H)-one]	65
CC[C@@H](CO)Nc1nc(Nc2cnccn2)cc2ccn(CC)c(=O)c12 [compound 1042]	111
Nc1ncc(-c2cc3ccn(CCO)c(=O)c3c(NC3CC3)n2)cn1 [compound 1035]	38
COCCCN(C)S(=O)(=O)c1ccc(Nc2nc(Nc3cc(C)ccn3)cc3ccn(C)c(=O)c23)cc1 [compound 651]	2410
CC1(Nc2nc(Nc3cc(C(C)(C)O)ccn3)cc3ccn(CC(N)=O)c(=O)c23)CCC1 [compound 722]	155
CC(O)c1ccnc(Nc2cc3ccn(CCO)c(=O)c3c(NC(C)(C)C)n2)c1 (stereo not shown) [compound 700]	12
CC(C)n1ccc2cc(Nc3c[n+]([O-])ccn3)nc(N[C@H]3CC[C@@H](CO)C3)c2c1=O [compound 1018]	13
CC(C)(C)Nc1nc(Nc2cnccn2)cc2ccn(Cc3ccncc3)c(=O)c12 [compound 1019]	301

same assay, conditions: read-out: Syk Enzyme IC50

Structure (SMILES)	IC50 [nM]
CS(=O)(=O)c1ccc(Nc2nc(Nc3cnccn3)cc3ccn(CCO)c(=O)c23)cc1 [compound 405]	235
CC(C)Nc1nc(Nc2cc(C(N)=O)ccn2)cc2cc[nH]c(=O)c12 [compound 514]	51
CCN1CCN(CCc2ccc(Nc3nc(Nc4ccc(C#N)cn4)cc4cc[nH]c(=O)c34)cc2)CC1 [compound 564]	385
Cc1ccnc(Nc2cc3ccn(C)c(=O)c3c(Nc3cccc(C(N)=O)c3)n2)c1 [compound 507]	136
COc1ccc(Nc2nc(Nc3cc(C)ccn3)cc3ccn(C)c(=O)c23)cc1 [compound 364]	228
O=C(N1CC2CC(C1)c1cc(Nc3nc(-c4cnccn4)cc4cc[nH]c(=O)c34)ccc12)C(F)(F)F (stereo not shown) [compound 97]	2500
CCOC(=O)c1ccc(Nc2cc3cc[nH]c(=O)c3c(Nc3ccc(N4CCOCC4)cc3)n2)nc1 [compound 578]	186
CCn1ccc2cc(Nc3cnccn3)nc(NC[C@@H]3CC[C@](C)(O)C3)c2c1=O [compound 415]	172
COc1ccc(Nc2nc(Nc3cnccn3)cc3ccn(C)c(=O)c23)cc1 [compound 365]	361
CCOC(C)c1cc2cc[nH]c(=O)c2c(Nc2ccc(N3CCO[C@H](C)C3)c(C)c2)n1 (stereo partly shown) [compound 233]	754
C[C@@H](CO)Nc1nc(Nc2cnccn2)cc2ccn(CCO)c(=O)c12 [compound 373]	27
CCc1ccnc(Nc2cc3ccn(CC)c(=O)c3c(NC(C)C)n2)c1 [compound 304]	384
COc1ncc(-c2cc3cc[nH]c(=O)c3c(Nc3ccc(C4CN(C)C4)cc3)n2)cn1 [compound 139]	34
CNC(=O)CN1CCC(c2ccc(Nc3nc(-c4cncc(OC)n4)cc4cc[nH]c(=O)c34)cc2C)CC1 [compound 135]	48
[2H]C([2H])([2H])n1ccc2cc(Nc3cc(Cl)ccn3)nc(NC(C)(C)C)c2c1=O [compound 542]	830
Nc1ncc(-c2cc3cc[nH]c(=O)c3c(NC[C@@H](O)c3cccc(Cl)c3)n2)cn1 [compound 449]	384
CN1CC(c2ccc(Nc3nc(-c4cncnc4)cc4cc[nH]c(=O)c34)cc2)C1 [compound 138]	26
Cc1ccnc(Nc2cc3cc[nH]c(=O)c3c(NC[C@@H](O)c3cccc(Cl)c3)n2)c1 [compound 539]	915
CCn1ccc2cc(Nc3cc(C)ccn3)nc(N[C@@H]3CC[C@H](O)C3)c2c1=O [compound 426]	70.8
CCOC(=O)CCc1cc2cc[nH]c(=O)c2c(Nc2ccc(N3CCOCC3)cc2)n1 [compound 245]	295
CNC(=O)C(C)(C)c1ccc(Nc2nc(-c3cnc4nccn4c3)cc3cc[nH]c(=O)c23)cc1 [compound 29]	30
COCCCc1cc2cc[nH]c(=O)c2c(Nc2ccc(C3CCN(C4CC4)CC3)c(C)c2)n1 [compound 238]	1290

Structure (SMILES)	IC50 [nM]
CCN1CCN(c2n[nH]c3cc(Nc4nc(-c5cncc(OC)n5)cc5cc[nH]c(=O)c45)ccc23)CC1 [compound 209]	11
COc1cncc(-c2cc3cc[nH]c(=O)c3c(Nc3ccc(C4CCN(C(=O)N5CCOCC5)CC4)c(C)c3)n2)n1 [compound 115]	181
CCCc1ccnc(Nc2cc3cc[nH]c(=O)c3c(NC(C)C)n2)c1 [compound 502]	164
CCN1CCN(c2n[nH]c3cc(Nc4nc(-c5cnc(OC)nc5)cc5cc[nH]c(=O)c45)ccc23)CC1 [compound 201]	70
COc1cncc(-c2cc3cc[nH]c(=O)c3c(Nc3ccc(C4CCN(CCN(C)C)CC4)c(C)c3)n2)n1 [compound 63]	33
COc1cncc(-c2cc3cc[nH]c(=O)c3c(Nc3ccc(C4CCN(CCF)CC4)c(C)c3)n2)n1 [compound 79]	27
CC[C@H](C)Nc1nc(Nc2ccccn2)cc2cc[nH]c(=O)c12 [compound 290]	271
COc1cncc(-c2cc3cc[nH]c(=O)c3c(Nc3ccc(C(=O)NCCN4CCCC4)cc3)n2)n1 [compound 82]	14
COCCCc1cc2cc[nH]c(=O)c2c(Nc2ccc(N3CCOCC3)cc2)n1 [compound 240]	356
Cc1ncc(-c2cc3cc[nH]c(=O)c3c(Nc3ccc([C@H]4CC[C@@H](N5CCOCC5)CC4)cc3)n2)cn1 [compound 11]	652
CCN1CCN(CCCc2ccc(Nc3nc(-c4cncc(OC)n4)cc4cc[nH]c(=O)c34)cc2)CC1 [compound 41]	42
CCC(C(=O)O)N1CCC(c2ccc(Nc3nc(-c4cncc(OC)n4)cc4cc[nH]c(=O)c34)cc2C)CC1 (stereo not shown) [compound 119]	5
COc1nc(-c2cc3cc[nH]c(=O)c3c(Nc3ccc(C4CCN(CCC#N)CC4)cc3)n2)cnc1N [compound 154]	20
CC(C)Nc1nc(-c2cnc(N)nc2)cc2cc[nH]c(=O)c12 [compound 35]	86
O=c1[nH]ccc2cc(Nc3ccccn3)nc(N[C@H]3CCC[C@H]3O)c12 (racemic) [compound 280]	62
O=c1[nH]ccc2cc(Nc3ccccn3)nc(NCCc3cccnc3)c12 [compound 289]	228
Cc1cc(Nc2nc(Nc3cc(Cl)ccn3)cc3cc[nH]c(=O)c23)ccc1C1CCN(C2CC2)CC1 [compound 257]	170
COc1cncc(-c2cc3cc[nH]c(=O)c3c(Nc3ccc(CCn4cncn4)cc3)n2)n1 [compound 24]	122
Cc1ccnc(Nc2cc3ccn(C)c(=O)c3c(N[C@H]3CCC[C@H]3O)n2)c1 (racemic) [compound 324]	98
COCCCc1cc2cc[nH]c(=O)c2c(Nc2ccc(N3CCO[C@H](C)C3)c(C)c2)n1 [compound 239]	2220
Cc1ccnc(Nc2cc3cc[nH]c(=O)c3c(NC3CNC3)n2)c1 [compound 300]	1540
Nc1ncc(-c2cc3cc[nH]c(=O)c3c(NC3CCOC3)n2)cn1 (stereo not shown) [compound 185]	145
